Values joined by “and” are separate entries in the source; they are usually repeats but may differ in a detail not shown here. Equal entries are not always repeated.
How the values were obtained:
PAK1 = PAK1 (Homo sapiens, UniProt Q13153); assay: biochemical; details: read-out: % enzyme activity, 1 μM; Run 1, Run 2
PDGFRb = PDGFRb (Homo sapiens, UniProt P09619); assay: biochemical; details: read-out: % enzyme activity, 1 μM; Run 1, Run 2
IKKb/IKBKB = target: T1, IKKb/IKBKB (Homo sapiens, UniProt O14920); assay: biochemical; details: read-out: % enzyme activity, 1 μM; Run 1, Run 2
T1 sequence (O14920 1-756): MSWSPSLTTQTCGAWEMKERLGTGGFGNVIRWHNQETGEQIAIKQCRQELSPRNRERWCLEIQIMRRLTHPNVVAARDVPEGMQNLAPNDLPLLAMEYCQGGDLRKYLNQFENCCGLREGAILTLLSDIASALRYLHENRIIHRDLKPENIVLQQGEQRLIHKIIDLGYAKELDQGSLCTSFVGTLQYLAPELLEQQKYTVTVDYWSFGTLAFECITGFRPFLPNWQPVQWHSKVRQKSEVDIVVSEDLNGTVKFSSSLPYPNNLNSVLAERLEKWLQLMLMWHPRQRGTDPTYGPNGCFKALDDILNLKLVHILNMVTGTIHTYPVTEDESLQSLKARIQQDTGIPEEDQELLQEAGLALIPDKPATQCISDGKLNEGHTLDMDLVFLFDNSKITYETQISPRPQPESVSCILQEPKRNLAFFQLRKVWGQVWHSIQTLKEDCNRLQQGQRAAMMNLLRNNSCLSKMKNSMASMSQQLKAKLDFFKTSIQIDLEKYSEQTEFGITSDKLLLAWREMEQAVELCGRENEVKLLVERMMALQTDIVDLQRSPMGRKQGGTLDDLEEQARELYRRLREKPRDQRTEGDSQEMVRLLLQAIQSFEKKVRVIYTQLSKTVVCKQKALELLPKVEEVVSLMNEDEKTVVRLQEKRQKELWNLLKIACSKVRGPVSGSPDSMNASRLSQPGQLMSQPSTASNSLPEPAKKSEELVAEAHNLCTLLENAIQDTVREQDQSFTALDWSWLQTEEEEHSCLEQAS

PKCzeta = target: T2, PKCzeta (Homo sapiens, UniProt Q05513); details: 1 μM; Run 1, Run 2
T2 sequence (Q05513 1-592): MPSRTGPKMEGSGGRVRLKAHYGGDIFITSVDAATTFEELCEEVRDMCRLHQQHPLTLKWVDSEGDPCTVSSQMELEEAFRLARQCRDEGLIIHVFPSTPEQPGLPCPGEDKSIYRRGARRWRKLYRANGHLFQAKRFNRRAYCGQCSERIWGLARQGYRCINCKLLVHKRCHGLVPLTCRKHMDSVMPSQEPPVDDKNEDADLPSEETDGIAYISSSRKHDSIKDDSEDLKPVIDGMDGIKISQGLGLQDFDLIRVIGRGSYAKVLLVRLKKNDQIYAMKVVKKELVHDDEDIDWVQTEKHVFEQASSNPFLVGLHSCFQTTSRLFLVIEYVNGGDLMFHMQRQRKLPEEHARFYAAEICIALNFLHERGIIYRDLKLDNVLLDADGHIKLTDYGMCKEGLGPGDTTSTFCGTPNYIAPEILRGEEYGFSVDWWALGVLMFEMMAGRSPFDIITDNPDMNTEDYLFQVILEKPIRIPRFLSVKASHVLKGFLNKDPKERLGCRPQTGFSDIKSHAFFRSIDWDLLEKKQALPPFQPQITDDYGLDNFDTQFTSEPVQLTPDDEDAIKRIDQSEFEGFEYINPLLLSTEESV

MARK4 = target: T3, MARK4 (Homo sapiens, UniProt Q96L34); details: 1 μM; Run 1, Run 2
T3 sequence (Q96L34 1-752): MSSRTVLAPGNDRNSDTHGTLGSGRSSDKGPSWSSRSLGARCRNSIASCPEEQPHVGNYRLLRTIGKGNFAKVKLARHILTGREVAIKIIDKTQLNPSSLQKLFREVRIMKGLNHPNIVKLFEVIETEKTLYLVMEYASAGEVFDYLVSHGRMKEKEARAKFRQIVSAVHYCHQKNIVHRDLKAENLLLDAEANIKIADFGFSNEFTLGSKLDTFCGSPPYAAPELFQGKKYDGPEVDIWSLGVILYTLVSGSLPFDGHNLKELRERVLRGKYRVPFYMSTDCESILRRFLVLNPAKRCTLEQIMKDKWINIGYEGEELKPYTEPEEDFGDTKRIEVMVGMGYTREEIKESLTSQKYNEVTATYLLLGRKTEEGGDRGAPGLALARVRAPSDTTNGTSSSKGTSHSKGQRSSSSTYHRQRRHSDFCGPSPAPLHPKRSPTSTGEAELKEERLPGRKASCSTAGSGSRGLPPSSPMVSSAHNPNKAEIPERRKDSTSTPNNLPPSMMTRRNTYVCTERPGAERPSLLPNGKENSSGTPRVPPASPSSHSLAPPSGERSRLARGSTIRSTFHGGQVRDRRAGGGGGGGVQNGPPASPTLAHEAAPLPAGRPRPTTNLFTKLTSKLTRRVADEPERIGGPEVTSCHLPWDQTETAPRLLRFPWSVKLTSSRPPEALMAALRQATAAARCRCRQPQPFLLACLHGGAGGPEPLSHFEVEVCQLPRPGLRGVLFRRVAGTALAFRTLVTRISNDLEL

OSR1/OXSR1 = OSR1/OXSR1 (Homo sapiens, UniProt O95747); details: 1 μM; Run 1, Run 2
PDGFRa = PDGFRa (Homo sapiens, UniProt P16234); details: 1 μM; Run 1, Run 2
MLK2/MAP3K10 = MLK2/MAP3K10 (Homo sapiens, UniProt Q02779); assay: biochemical; details: read-out: % enzyme activity, 1 μM; Run 1, Run 2
WNK3 = WNK3 (Homo sapiens, UniProt Q9BYP7); assay: biochemical; details: read-out: % enzyme activity, 1 μM; Run 1, Run 2
ALK = ALK (Homo sapiens, UniProt Q9UM73); assay: biochemical; details: read-out: % enzyme activity, 1 μM; Run 1, Run 2
NEK6 = NEK6 (Homo sapiens, UniProt Q9HC98); assay: biochemical; details: read-out: % enzyme activity, 1 μM; Run 1, Run 2
MLK1/MAP3K9 = MLK1/MAP3K9 (Homo sapiens, UniProt P80192); details: 1 μM; Run 1, Run 2

Chain of ALK (Q9UM73 19-1620): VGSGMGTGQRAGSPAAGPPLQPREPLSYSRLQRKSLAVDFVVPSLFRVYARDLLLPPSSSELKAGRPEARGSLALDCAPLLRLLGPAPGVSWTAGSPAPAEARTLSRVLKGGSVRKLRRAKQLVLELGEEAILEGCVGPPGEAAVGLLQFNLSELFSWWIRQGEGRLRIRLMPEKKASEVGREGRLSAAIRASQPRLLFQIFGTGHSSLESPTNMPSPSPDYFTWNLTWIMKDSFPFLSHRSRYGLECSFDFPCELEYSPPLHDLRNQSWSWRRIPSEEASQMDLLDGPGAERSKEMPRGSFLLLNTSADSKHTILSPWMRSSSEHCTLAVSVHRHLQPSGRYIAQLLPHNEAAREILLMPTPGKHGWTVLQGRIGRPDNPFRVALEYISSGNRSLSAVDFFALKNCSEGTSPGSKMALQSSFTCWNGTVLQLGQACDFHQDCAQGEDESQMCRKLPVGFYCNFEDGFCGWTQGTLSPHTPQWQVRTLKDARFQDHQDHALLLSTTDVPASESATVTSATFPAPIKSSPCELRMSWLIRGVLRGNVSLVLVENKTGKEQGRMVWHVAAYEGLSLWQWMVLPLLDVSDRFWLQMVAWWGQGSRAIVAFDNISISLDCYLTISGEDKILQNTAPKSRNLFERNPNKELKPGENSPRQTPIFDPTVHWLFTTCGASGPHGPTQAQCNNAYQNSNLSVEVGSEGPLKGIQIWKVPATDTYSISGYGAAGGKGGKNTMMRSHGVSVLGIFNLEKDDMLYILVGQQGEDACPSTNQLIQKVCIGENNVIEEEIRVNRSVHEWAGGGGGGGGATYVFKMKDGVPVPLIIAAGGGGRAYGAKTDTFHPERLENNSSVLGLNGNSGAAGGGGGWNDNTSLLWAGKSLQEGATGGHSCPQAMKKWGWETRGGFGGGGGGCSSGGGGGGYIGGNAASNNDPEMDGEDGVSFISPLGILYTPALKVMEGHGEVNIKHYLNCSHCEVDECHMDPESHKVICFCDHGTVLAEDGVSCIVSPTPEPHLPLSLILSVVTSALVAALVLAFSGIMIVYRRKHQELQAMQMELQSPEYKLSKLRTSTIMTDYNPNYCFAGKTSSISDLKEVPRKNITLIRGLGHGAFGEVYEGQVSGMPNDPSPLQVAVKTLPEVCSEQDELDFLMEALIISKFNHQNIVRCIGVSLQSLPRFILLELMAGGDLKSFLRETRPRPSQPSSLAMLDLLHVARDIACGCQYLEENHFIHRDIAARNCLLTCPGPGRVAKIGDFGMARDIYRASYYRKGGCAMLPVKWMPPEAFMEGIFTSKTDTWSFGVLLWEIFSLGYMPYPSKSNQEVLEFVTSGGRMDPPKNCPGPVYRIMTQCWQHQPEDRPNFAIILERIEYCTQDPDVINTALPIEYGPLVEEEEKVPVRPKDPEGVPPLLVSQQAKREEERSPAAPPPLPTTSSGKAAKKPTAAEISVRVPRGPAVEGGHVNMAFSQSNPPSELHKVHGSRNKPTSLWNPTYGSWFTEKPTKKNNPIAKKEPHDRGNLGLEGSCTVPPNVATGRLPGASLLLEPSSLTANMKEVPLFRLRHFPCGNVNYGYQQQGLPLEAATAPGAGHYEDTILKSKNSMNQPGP
Chain of PDGFRa (P16234 24-1089): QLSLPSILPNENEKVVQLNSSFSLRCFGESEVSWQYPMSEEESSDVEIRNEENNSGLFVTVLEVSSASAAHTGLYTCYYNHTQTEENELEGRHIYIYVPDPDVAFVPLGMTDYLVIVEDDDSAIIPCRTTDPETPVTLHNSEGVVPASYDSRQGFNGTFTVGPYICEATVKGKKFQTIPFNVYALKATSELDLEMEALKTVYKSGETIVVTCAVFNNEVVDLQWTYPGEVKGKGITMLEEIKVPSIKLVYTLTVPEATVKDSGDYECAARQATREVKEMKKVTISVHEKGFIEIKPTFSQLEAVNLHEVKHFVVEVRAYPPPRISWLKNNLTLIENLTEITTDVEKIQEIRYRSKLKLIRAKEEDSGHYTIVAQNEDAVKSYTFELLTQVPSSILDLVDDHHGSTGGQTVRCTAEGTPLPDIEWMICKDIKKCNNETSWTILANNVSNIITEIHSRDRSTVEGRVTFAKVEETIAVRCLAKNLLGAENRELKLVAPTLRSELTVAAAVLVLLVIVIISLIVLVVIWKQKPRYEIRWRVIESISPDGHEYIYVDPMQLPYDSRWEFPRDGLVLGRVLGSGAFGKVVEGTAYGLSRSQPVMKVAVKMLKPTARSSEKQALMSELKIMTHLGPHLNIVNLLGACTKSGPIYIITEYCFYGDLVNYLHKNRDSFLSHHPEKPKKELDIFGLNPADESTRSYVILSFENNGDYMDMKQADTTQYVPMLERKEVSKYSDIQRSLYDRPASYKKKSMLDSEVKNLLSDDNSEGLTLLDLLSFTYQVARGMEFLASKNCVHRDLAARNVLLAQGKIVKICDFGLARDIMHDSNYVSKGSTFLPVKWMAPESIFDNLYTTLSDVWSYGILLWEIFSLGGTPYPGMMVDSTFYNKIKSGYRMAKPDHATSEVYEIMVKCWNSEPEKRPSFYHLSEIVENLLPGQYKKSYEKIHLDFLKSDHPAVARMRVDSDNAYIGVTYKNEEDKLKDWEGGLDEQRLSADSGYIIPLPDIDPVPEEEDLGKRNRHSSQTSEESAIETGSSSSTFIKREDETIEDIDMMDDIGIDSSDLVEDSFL
Chain of PAK1 (Q13153 whole entry): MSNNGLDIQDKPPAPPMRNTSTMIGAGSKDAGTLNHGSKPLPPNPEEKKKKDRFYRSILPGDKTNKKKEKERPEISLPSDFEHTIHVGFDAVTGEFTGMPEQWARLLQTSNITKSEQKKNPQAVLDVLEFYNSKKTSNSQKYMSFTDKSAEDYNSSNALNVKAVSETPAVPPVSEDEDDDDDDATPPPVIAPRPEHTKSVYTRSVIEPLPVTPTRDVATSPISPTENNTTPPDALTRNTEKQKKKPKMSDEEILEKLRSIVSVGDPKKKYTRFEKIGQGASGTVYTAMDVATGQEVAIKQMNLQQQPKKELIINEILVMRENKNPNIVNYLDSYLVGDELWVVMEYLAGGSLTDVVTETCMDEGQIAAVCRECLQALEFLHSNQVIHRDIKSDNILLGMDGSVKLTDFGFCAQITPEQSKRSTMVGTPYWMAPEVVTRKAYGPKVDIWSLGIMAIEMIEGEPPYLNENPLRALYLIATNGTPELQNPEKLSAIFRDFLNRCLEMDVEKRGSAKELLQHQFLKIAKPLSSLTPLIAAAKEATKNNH
Chain of MLK2/MAP3K10 (Q02779 whole entry): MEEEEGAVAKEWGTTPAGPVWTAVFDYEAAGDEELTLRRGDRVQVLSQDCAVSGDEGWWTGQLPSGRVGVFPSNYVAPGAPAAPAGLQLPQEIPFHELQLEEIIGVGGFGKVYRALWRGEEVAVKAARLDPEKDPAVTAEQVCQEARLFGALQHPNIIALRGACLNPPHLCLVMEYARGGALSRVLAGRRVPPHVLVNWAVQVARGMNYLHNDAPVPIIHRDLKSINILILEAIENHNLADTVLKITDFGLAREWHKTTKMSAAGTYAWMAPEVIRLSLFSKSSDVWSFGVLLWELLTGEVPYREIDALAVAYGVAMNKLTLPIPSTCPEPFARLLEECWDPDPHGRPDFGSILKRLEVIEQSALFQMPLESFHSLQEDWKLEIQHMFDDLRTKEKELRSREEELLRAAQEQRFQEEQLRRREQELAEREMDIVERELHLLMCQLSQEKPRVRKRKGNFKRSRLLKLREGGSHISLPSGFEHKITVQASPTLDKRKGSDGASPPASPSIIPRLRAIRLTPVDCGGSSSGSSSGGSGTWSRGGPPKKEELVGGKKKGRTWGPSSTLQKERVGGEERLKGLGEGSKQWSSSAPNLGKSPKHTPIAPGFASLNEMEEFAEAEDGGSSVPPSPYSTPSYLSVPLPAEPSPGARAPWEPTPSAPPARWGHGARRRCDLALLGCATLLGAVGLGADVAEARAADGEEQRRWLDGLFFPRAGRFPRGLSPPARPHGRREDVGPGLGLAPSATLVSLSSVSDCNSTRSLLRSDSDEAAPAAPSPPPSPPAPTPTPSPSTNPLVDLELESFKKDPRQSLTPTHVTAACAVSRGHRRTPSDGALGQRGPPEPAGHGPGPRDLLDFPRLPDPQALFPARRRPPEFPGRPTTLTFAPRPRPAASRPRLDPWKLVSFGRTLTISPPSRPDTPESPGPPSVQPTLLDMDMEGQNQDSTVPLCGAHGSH
Chain of OSR1/OXSR1 (O95747 whole entry): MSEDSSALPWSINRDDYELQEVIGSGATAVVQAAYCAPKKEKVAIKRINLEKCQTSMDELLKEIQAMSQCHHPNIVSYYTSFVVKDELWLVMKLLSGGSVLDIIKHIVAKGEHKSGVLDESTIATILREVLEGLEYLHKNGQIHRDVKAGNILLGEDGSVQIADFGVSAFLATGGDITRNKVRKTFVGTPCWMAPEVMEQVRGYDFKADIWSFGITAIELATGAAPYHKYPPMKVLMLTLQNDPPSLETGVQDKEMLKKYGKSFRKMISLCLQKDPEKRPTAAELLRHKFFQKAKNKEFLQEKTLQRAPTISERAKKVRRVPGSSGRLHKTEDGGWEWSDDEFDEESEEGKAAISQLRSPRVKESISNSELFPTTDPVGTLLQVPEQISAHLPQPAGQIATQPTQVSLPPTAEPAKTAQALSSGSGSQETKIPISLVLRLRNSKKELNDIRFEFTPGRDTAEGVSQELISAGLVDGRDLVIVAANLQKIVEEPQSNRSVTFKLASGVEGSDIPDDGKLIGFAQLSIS
Chain of NEK6 (Q9HC98 whole entry): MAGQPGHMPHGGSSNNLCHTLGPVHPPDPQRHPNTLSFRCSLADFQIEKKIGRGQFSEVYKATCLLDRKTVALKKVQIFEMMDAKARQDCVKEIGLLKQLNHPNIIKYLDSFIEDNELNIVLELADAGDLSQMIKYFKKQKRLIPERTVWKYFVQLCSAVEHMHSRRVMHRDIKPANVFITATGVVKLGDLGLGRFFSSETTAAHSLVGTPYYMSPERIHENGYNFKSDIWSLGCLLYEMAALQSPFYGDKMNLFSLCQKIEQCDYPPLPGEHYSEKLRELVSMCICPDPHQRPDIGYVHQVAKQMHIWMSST

Compound	remaining activity at 1 µM (PAK1) [%]	% enzyme activity at 1 μM (MNK2)	remaining activity at 1 µM (PDGFRb) [%]	remaining activity at 1 µM (IKKb/IKBKB) [%]	% enzyme activity at 1 μM (TGFBR2)	% enzyme activity (PKCzeta) [%]	% enzyme activity (MARK4) [%]	% enzyme activity (OSR1/OXSR1) [%]	% enzyme activity (PDGFRa) [%]	remaining activity at 1 µM (MLK2/MAP3K10) [%]	remaining activity at 1 µM (WNK3) [%]	remaining activity at 1 µM (ALK) [%]	remaining activity at 1 µM (NEK6) [%]	% enzyme activity (MLK1/MAP3K9) [%]
COc1cc(-c2cncc(-c3ccc(N4CCN(C)CC4)cc3)c2C)cc(F)c1C(N)=O [Compound 26a, 2-Fluoro-6-methoxy-4-(4-methyl-5-(4-(4-methylpiperazin-1-yl)phenyl)pyridin-3-yl)benzamide]	105	48.2%	77.3	104	103% and 97.4%	90.40	82.62	93.34	81.22	86.4	89.6	99.9	99.3	110.44
COc1cc(-c2cncc(-c3ccc(N4C[C@@H](C)N(C)[C@@H](C)C4)cc3)c2C)cc(F)c1C(N)=O [Compound 26c, 2-Fluoro-6-methoxy-4-(4-methyl-5-(4-((3R,5S)-3,4,5-trimethylpiperazin-1-yl)phenyl)pyridin-3-yl)benzamide]	103	70.8% and 68.3%	92.1	101	106% and 105%	91.43	95.76	94.75	81.08	98.5	93.8	101	104	98.95

From PMC8213057, “Targeting ALK2: An Open Science Approach to Developing Therapeutics for the Treatment of Diffuse Intrinsic Pontine Glioma” (Journal of Medicinal Chemistry, 2020)
